These results are taken from article PMC5471452, “Optical control of a receptor-linked guanylyl cyclase using a photoswitchable peptidic hormone” (Chemical Science, 2017).

The test system of data set [1] is murine thoracic aortic rings. The data set can be described thus: Aortic tensometry, pre-constricted aortic rings. The arrangement: species or system C57BL/6 mice. The conditions noted are these: for vasodilation of pre-constricted aortic rings, in words: rings pre-contracted with 1 µM phenylephrine, 200 μM L-NAME and 3 μM diclofenac present, n = 6 aortic rings from 4 animals. On the procedure:
We next sought to address whether TOP271 would allow the optical control of cGMP-dependent processes in a physiologically relevant system, i.e. the aortic ring preparation. […] Accordingly, we predicted that TOP271 would allow reversible, light-controlled vasoactive responses, with cis-TOP271 being the stronger effector at specific concentrations. […] Although this concentration–response indicated a significant difference in receptor activation for 100 nM TOP271, we decided to use 400 nM TOP271 to trigger a stronger isomer-dependent vasodilation.
Fig. 3 TOP271 allows photocontrol of aortic tissue. (a) Concentration-response curves for trans- and cis-TOP271. (b) Aortic relaxation for cycles in (d) and (e). […] (d, e) Reversible photocontrol over aortic tension by application of trans-TOP271 (d) and cis-TOP271 (e) with UV-/blue and blue/UV-light (365 and 460 nm) cycles, respectively. All experiments were conducted in the presence of 200 μM N-ω-nitro-L-arginine methyl ester (L-NAME) and 3 μM diclofenac, which were used to block the vascular relaxants nitric oxide and prostacyclin, respectively. PE = phenylephrine was used for initial vasoconstriction, IBMX = 3-iso-butyl-1-methylxanthine was used to induce complete muscular relaxation as an end point control. (n = 6 aortic rings from 4 animals) (*P < 0.05, **P < 0.01, repeated measures Student's t-test). Values represent the mean ± SEM. […]
Murine thoracic aortic rings were mounted in a myograph as described recently16. In detail, thoracic aortas from C57BL/6 mice were explanted and cut into rings and mounted on fixed segment support pins in two four-chamber Myograph 610 (Danish Myo Technology, Aarhus, Denmark) containing 5 ml of Krebs–Henseleit solution (containing […]
glucose, pH 7.4), bubbled with 95% O2 and 5% CO2. Resting tension was set to 5 mN in the presence of Diclofenac (3 µM) and N-nitro-L-arginine methyl ester (L-NAME) (200 µM). After equilibration (45 minutes at 37 °C), rings were pre-contracted with 1 µM phenylephrine (PE). Since aortic ring myography is sensitive to temperature fluctuations, effects of direct and indirect illumination on vasoactivity were determined. […] The vasorelaxing effects of pre-illuminated cis- and dark trans-TOP271 were assessed once a steady plateau was reached. […]
were prepared (10 mM in water), of which an aliquot of TOP271 was either pre-illuminated at λ = 365 nm using a UVP 3UV benchtop UV lamp to obtain the cis-isomer, or kept in the dark to maintain the trans-isomer. […] Read-out was conducted in between illumination cycles as soon as a steady plateau was reached to exclude any light dilational effects. […]

Data set [2] has as its system pancreatic beta cells in islets of Langerhans. Put plainly: Calcium imaging of beta cells in intact islets of Langerhans. The data set is classed as cell-based, CD1 mice. The conditions noted are these: for effect on amplitude of intracellular Ca2+ fluxes in beta cells, in words: intact islets, 8 mM glucose, ANP 0.1–100 nM, TOP271 isomers 1–100 nM, n = 4–6 islets for each concentration. On the procedure: Reversibility could be achieved by applying cis-TOP271 and then illuminating with blue light (λ = 458–482 nm) to induce trans-isomerisation (Fig. 4i and j). Restoration of beta cell function was only partial (Fig. 4j), however, possibly due to cGMP-mediated sequestration of Ca^2+ into internal stores such as the endoplasmic reticulum.[61] […]
CD1 mice were maintained in a specific pathogen-free facility under a 12 h light–dark cycle with ad libitum access to water and food. Animals were euthanized by cervical dislocation and islets isolated using collagenase digestion. Islets were cultured overnight in Roswell Park Memorial Institute (RPMI) medium supplemented with 10% foetal calf serum and 100 U/mL penicillin and 100 µg/mL streptomycin. No randomization was used for animal experimentation, since mice were only used as tissue donors.
Experimental protocols were approved by the University of Birmingham's Animal Welfare and Ethical Review Body (AWERB) and carried out in accordance with the Animals (Scientific Procedures) Act 1986 of the United Kingdom.
Islets were loaded for 40 min with Fluo8 (AAT Bioquest, Sunnyvale, CA, USA), before imaging using a Crest X-Light spinning disk head coupled to a Nikon Ti-E automated base and 10 x/0.4 NA objective. Pulsed excitation was delivered at λ = 458–482 nm (400 ms exposure; 0.33 Hz) via a Lumencor Spectra X Light Engine, and emitted signals detected at λ = 500–550 nm using a Photometrics Evolve Delta 512 EMCCD.
Illumination to induce photoswitching was performed using either continuous exposure to λ = 458–482 nm or λ = 382–407 nm. In all cases, HEPES-bicarbonate buffer was used, containing in mM: 120 NaCl, 4.8 KCl, 24 NaHCO3, 0.5 Na2HPO4, 5 HEPES, 2.5 CaCl2, 1.2 MgCl2, 8 D-glucose. Ca2+ traces were normalized as F/Fmin (F = fluorescence at any given timepoint; Fmin = minimum fluorescence) and relative change in this value over time denoted by a scale bar.
Non-multifactorial comparisons were made using Student’s t-test. Multifactorial comparisons were prepared using one-way ANOVA. Log-transformed concentration-response curves were fitted using non-linear regression and the Hill equation. All analyses were conducted using Graphpad Prism (Graphpad software) and IgorPro (WaveMetrics software), and results deemed significant * at P<0.05 or ** at P<0.01.

Data set [3] concerns the target T1, NPR-A (Homo sapiens, UniProt P16066).
T1 construct: expressed in transfected cells; host or cells: HEK293t cells (DSMZ #305), transiently co-transfected with pCMV5_GC-A and YFP
T1 sequence (P16066 33-1061): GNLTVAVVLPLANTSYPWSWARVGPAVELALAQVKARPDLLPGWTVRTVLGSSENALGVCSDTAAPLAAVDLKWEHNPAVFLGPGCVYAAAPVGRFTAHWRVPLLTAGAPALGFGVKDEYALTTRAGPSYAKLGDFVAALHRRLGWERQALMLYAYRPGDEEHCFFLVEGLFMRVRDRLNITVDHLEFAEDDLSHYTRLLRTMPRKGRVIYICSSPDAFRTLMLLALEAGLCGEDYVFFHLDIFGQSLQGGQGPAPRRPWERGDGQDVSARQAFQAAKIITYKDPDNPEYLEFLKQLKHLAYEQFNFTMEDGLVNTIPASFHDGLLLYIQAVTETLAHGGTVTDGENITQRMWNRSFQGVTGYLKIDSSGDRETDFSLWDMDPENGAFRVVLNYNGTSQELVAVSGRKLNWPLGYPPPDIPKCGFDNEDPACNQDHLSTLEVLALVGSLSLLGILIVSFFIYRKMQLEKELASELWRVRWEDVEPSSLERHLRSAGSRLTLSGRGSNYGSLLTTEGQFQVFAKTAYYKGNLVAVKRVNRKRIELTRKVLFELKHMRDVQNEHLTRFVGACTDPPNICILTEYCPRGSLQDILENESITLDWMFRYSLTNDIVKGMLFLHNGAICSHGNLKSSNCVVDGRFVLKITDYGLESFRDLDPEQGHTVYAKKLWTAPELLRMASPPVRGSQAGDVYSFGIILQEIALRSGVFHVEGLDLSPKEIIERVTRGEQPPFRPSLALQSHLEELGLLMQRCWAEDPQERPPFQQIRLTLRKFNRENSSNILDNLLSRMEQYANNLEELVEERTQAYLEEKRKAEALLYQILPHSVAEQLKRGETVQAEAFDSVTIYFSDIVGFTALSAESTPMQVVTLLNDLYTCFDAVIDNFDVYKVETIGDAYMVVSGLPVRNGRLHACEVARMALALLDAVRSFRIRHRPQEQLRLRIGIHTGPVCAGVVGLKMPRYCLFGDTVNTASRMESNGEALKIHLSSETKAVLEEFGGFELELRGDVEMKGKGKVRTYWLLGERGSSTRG
Put plainly: cGMP assay (HTRF) in HEK293T cells transiently transfected with NPR-A. The conditions noted are these: in vitro. The data set is classed as cell-based.
Experimental: To test cGMP synthesis, each peptide was applied as the trans- or cis-isomer by keeping them either in the dark or pre-illuminating with UV light (λ = 365 nm) for 15 minutes, respectively.
cGMP assay in transiently transfected HEK293t cells
HEK293t cells (obtained from the Leibniz-Institute DSMZ, Braunschweig, Germany, #305, regularly mycoplasma tested) were transfected with pCMV5_GC-A 4 and YFP using Lipofectamine 2000® (Life Science, Indianapolis, IN, USA) at >80% confluency in a T25 flask according to the manufacturer’s instructions. After 24 h, cells were checked by means of YFP fluorescence for successful transfection (>70% efficiency), washed once and harvested with 1 mL Hepes-Krebs-Ringer (HKR) buffer (containing in mM: 135 NaCl, 5 KCl, 1 MgSO4, 0.4 K2HPO4, 5.5 D-glucose, 20 HEPES, 1 CaCl2, pH = 7.4) supplemented with PDE inhibitors IBMX (500 µM, Tocris, Bristol, UK, #2840) and Ro
µL of cell solution was pipetted into each well of a 384-well plate (white, flat bottom, Greiner, Frickenhausen, Germany). […] The resulting assays were incubated for 30 min before they were lysed and treated with a cGMP HTRF kit (Cisbio, Codolet, France) according to the manufacturer’s instructions. cGMP levels were read with a Omega platereader (BMG Labtech, Offenburg, Germany) after 1 h of incubation time and normalized according to the cGMP standards. […]

For data set [4] the following is noted: in benzene at 0 °C; cited from earlier work. On the procedure: As expected for an electron-poor azobenzene, all peptides were bistable (TOP271 Fig. 2c, TOP263-270 ESI Fig. 3 ^†). ^¶ ¶All peptides are available for academic use from the Hoffmann-Röder lab upon request. This advantageous trait allows samples to be pre-illuminated prior to application rather than needing constant illumination. […], and because the compounds were bistable, the initial back-relaxation was obtained as a linear function from the first 30 min after ceasing illumination. P ...

The conditions of data set [5]: ex vivo or in vivo, depending on cell environment or azoreductase expression; cited from earlier work. The source says:
Acting via the NPR-A receptor to generate cGMP, TOP271 allows the reversible photocontrol of contraction/dilation in aortic tissue, as well as Ca^2+ oscillations in rodent islets of Langerhans. Although photodependent cGMP synthesis was described earlier, these approaches rely on the genetically-encoded photosensitive proteins EROS[64],[65] or BeCyclOps,[66],[67] whereas TOP271 allows unprecedented photocontrolled cGMP synthesis in nativ ...

The structures appear in SMILES notation.

`CC[C@H](C)[C@@H]1NC(=O)[C@H](CCCNC(=N)N)NC(=O)[C@H](CC(=O)O)NC(=O)[C@H](CCSC)NC(=O)[C@H](CCCNC(=N)N)NC(=O)CNC(=O)CNC(=O)[C@H](Cc2ccccc2)NC(=O)[C@@H](NC(=O)[C@H](CO)NC(=O)[C@H](CO)NC(=O)[C@H](CCCNC(=N)N)NC(=O)[C@H](CCCNC(=N)N)NC(=O)[C@H](CC(C)C)NC(=O)[C@@H](N)CO)CSSC[C@@H](C(=O)N[C@@H](CC(N)=O)C(=O)N[C@@H](CO)C(=O)N[C@@H](Cc2ccccc2)C(=O)N[C@@H](CCCNC(=N)N)C(=O)N[C@@H](Cc2ccc(O)cc2)C(=O)O)NC(=O)Cc2cccc(c2)/N=N\c2cccc(c2)CNC(=O)[C@H](CCC(N)=O)NC(=O)[C@H](C)NC(=O)CNC1=O` [cis-TOP271]: in data set [1] (400 nM, aortic rings), the “speed of the initial vasodilation, cis- compared to trans-TOP271” value is recorded as 1.5 ×. Besides, the “vasodilation of pre-constricted aortic rings, in words” value in data set [1] (400 nM) is recorded as “potent vasodilation”. Besides, the “vasodilation concentration-response, cis- versus trans-isomer” value in data set [1] (pre-illuminated isomers, 100 nM to 1 μM range, pre-constricted aortic rings) is “increased potency”. The “restoration of beta cell function after blue light (458–482 nm) trans-isomerisation” value in data set [2] (cis-TOP271 applied, then blue light, n = 5 islets) is reported as “only partial”. Further, the “effect on amplitude of intracellular Ca2+ fluxes in beta cells, in words” value (“effect on amplitude” below) in data set [2] was “robustly suppressed Ca^2+ rises”. Also, the “fold higher potency of cis- over trans-isomer for cGMP generation” value in data set [3] stood at 4 fold.

Regarding `CC[C@H](C)[C@@H]1NC(=O)[C@H](CCCNC(=N)N)NC(=O)[C@H](CC(=O)O)NC(=O)[C@H](CCSC)NC(=O)[C@H](CCCNC(=N)N)NC(=O)CNC(=O)CNC(=O)[C@H](Cc2ccccc2)NC(=O)[C@@H](NC(=O)[C@H](CO)NC(=O)[C@H](CO)NC(=O)[C@H](CCCNC(=N)N)NC(=O)[C@H](CCCNC(=N)N)NC(=O)[C@H](CC(C)C)NC(=O)[C@@H](N)CO)CSSC[C@@H](C(=O)N[C@@H](CC(N)=O)C(=O)N[C@@H](CO)C(=O)N[C@@H](Cc2ccccc2)C(=O)N[C@@H](CCCNC(=N)N)C(=O)N[C@@H](Cc2ccc(O)cc2)C(=O)O)NC(=O)Cc2cccc(c2)/N=N/c2cccc(c2)CNC(=O)[C@H](CCC(N)=O)NC(=O)[C@H](C)NC(=O)CNC1=O` [trans-TOP271], in data set [1] (400 nM), the “vasodilation of pre-constricted aortic rings, in words” value is reported as “strong vasodilation”. The “effect on amplitude” value in data set [2] is on record as “only a small decrease”.

With `c1ccc(/N=N/c2ccccc2)cc1` [unsubstituted azobenzene, azobenzene], the “k obs thermal relaxation” value in data set [4] was 3.58 × 10^–4 a.u. min^–1.

As for `CC[C@H](C)[C@@H]1NC(=O)[C@H](CCCNC(=N)N)NC(=O)[C@H](CC(=O)O)NC(=O)[C@H](CCSC)NC(=O)[C@H](CCCNC(=N)N)NC(=O)CNC(=O)CNC(=O)[C@H](Cc2ccccc2)NC(=O)[C@@H](NC(=O)[C@H](CO)NC(=O)[C@H](CO)NC(=O)[C@H](CCCNC(=N)N)NC(=O)[C@H](CCCNC(=N)N)NC(=O)[C@H](CC(C)C)NC(=O)[C@@H](N)CO)CSSC[C@@H](C(=O)N[C@@H](CC(N)=O)C(=O)N[C@@H](CO)C(=O)N[C@@H](Cc2ccccc2)C(=O)N[C@@H](CCCNC(=N)N)C(=O)N[C@@H](Cc2ccc(O)cc2)C(=O)O)NC(=O)CNC(=O)[C@H](CC(C)C)NC(=O)CNC(=O)[C@H](CO)NC(=O)[C@H](CCC(N)=O)NC(=O)[C@H](C)NC(=O)CNC1=O` [ANP, human atrial natriuretic peptide, reference compound], the “effect on amplitude” value in data set [2] is recorded as “suppressed beta cell function”. Besides, the “pancreatic beta cell Ca2+ spiking frequency” value in data set [2] (low (0.1 nm) but not high (10 nm) concentration, n = 5-7 islets for each concentration) was “stimulate increases”.

In the case of `CCN(CC)c1ccc(/N=N/c2ccc(S(=O)(=O)NC(=O)NC3CCCCC3)cc2)cc1` [JB253], the “degradation of the diazene unit” value in data set [5] was “not the case”.
